# According to US11020358B2, “Method for the anti-senescence of and/or rejuvenating stem cells” (GWO XI STEM CELL APPLIED TECHNOLOGY CO., LTD., priority 2014, dated 2021):
# Test system: Wister rats
# Assay: Liver fibrosis rat model: biochemical functional indexes of cardiac blood
# Type: in vivo
# Settings: 200 mg/kg TAA i.p. once every three days for 60 days, cardiac blood 4 days after last injection
# Description: 200 mg/kg of thioacetamide (TAA) was intraperitoneally injected to 8-week-old male Wister rats (n=35) once every three days for 60 days (i.e., 20 injections in total) to obtain a liver fibrosis rat model (hereinafter referred to as the “TAA group” rat). Additionally, rats that injected with equal volume of normal saline but not TAA were served as a “control group” (n=12). At 4 days after the last injection, four rats in the “control group” and three rats in the “TAA group” were anesthetized with ether and analyzed by the following experiments.
# The cardiac blood of the “control group” and “TAA group” rats was collected and measured by a biochemical analyzer (Roche, Integra 800) to analyze the biochemical functional indexes, and thereby, evaluating the extent of hepatic damage. The biochemical functional indexes include the expression level of glutamate oxaloacetate transaminase (GOT), the expression level of glutamate pyruvate transaminase (GPT), the expression level of albumin, the expression level of total bilirubin, and prothrombin time.
smiles,measurement,value
"CC(=N)S [TAA, thioacetamide]",Albumin,2.8 ± 0.4 g/dL
same,GOT,546 ± 48 Units/L
same,GPT,138 ± 47 Units/L
same,Prothrombin time,16.4 ± 3.0 s
same,Total bilirubin,0.049 ± 0.009 mg/dL
